Literature values in US10105355B2 (BASF SE, priority 2014, dated 2018).
Where two headings read alike, the source gives them in different places.

- estimated elimination half-life (t½) (after a single dose treatment): 288 h
- estimated elimination half-life (t½) (after continuous once-daily dosing): 96 h
- exposure linearity (single doses higher than 270 mg): not linear
SMILES: CS(=O)(=O)c1ccc(C(=O)Nc2ccc(Cl)c(-c3ccccn3)c2)c(Cl)c1 [Vismodegib, 2-Chloro-N-(4-chloro-3-pyridin-2-ylphenyl)-4-methylsulfonylbenzamide]
